Blank lines part the entries; values can stand above or below the compound they belong to.
Assays:
L1210 murine leukaemia = experiment: Activity against L1210 murine leukaemia; format: in vivo, CDF1 mice; conditions: for % T/C: once on day 1
Method: The platinum complex is investigated for anti-tumour action against L1210 murine leukaemia. CDF1 mice with a weight of 20 g were inoculated intraperitoneally with 10^6 ascitic cells of L1210 leukaemia. The administration of the active substance was started the day following the intraperitoneal implantation of the tumour. The complex is administered in diverse amounts by intraperitoneal injections. Groups of 6 mice are used for each dose and they are treated with a single dose of the complex on the treatment day. A group of ten control mice treated with a physiological saline solution was included in the experiment. The groups treated with cis-platinum are included as positive comparisons. The mice were weighed before the treatment and again on the fifth or sixth day and the average change in weight is taken as a measure of the toxicity. The animals are assessed daily for mortality and the experiments are ended after 30 days. The tumour activity is determined on the basis of % T/C, which is the ratio of mean survival time of the group treated with the active substance relative to the mean survival time of the comparison group treated with a physiological saline solution times 100. The mice treated with physiological saline solution usually have a mean survival time of 7 days. A compound is regarded as active when this gives a % T/C≥125%.

[1] = tested on: M5076 reticulum cell sarcoma; experiment: Action against M5076 sarcoma, intraperitoneal implantation, i.p. treatment; format: in vivo, BDF1 mice
Method: (§1) The complex was also assessed for anti-tumour action against M5076 sarcoma. BDF1 mice, 8 per group, were inoculated intraperitoneally with 10^6 cells of M5076 or subcutaneously with a fragment of a M5076 tumour.
(§2) Mice with an intraperitoneal tumour were treated intraperitoneally starting 13 days after the implantation and this was continued on days 17, 21 and 25, resulting in 4 treatments in all. Mice with an implanted subcutaneous tumour were treated intravenously starting 5 days after the implantation and again on days 9, 13 and 17. Therefore a total of four treatments. Four doses of the complex were tested. A comparison group treated with physiological saline solution and groups treated with cs-platinum are included in this experiment. The mice were assessed daily for survival and the tests were ended after 75 to 80 days. The anti-tumour action was determined on the basis of a) mean survival time of the mice treated with the active substance relative to that of the untreated mice (% T/C) and b) the mean time for subcutaneously implanted tumours to reach a weight of 1 gram in mice treated with active substance relative to the untreated mice (T-C). A compound is regarded as active if this gives a T/C≥125% or is T-C≥13 days.

[2] = tested on: M5076 reticulum cell sarcoma; experiment: Action against M5076 sarcoma, subcutaneous implantation, i.v. treatment; format: in vivo, BDF1 mice; conditions: for T-C: time to 1 gram tumour
Method: as §1, §2

A2780/124 = conditions: for IC50 ratio: IC50 A2780/124 versus IC50 A2780
Method: (§3) The cytotoxic action of the platinum complex was evaluated in vitro in a cell line panel consisting of B16-F10 murine melanoma, HCT-116 human colon carcinoma, A2780 human ovary carcinoma and 2 sub-lines of A2780 which are resistant to cis-platinum, i.e. A2780/124 and A2780/PPD respectively. The B16-F10 cell line was kept in a culture of Eagle's Minimum Essential Medium (MEM) with Earle's salts (Gibco) enriched with 2 mmol L-glutamine, 2.06 mmol sodium pyruvate, insulin (0.26 units/ml), penicillin/streptomycin (10 units/ml and 10 mcg/ml respectively), MEM non-essential amino acids (0.6% by weight Gibco) and 10% foetal bovine serum (Hyclone). The HCT-116 cells were cultured in McCoy's 5A medium (modified Gibco) which was supplemented with 2 mmol L-glutamine, 0.12 mmol L-serine, 0.17 mmol asparagine, 1.5 mmol sodium pyruvate, MEM essential amino acids (0.625%, Gibco), MEM non-essential amino acids (0.67%, Gibco), MEM vitamins (0.6%, Gibco), foetal calf serum (10%, Hyclone) and penicillin/streptomycin (10 units/ml and 10 mcg/ml). The A2780 cell lines are cultured in RPMI medium 1640 (Gibco Laboratories) supplemented with foetal calf serum (10% Hyclone), 2 mmol L-glutamine and penicillin/streptomycin. All cell lines are incubated at 37° C. in an incubator with 5% by volume CO2 with a high atmospheric humidity.
(§4) Logarithmically growing cells are harvested by mild trypsinisation and 4,000 cells are added to a microtitre plate with 96 wells (Costar). The plates are incubated for one night in 5% by volume CO2 at 37° C. to allow the cells to adhere to the plate. The cells are then treated with the platinum complex or cis-platinum and incubated for 72 hours. […] Formalin (10% by weight) in a phosphate-buffered physiological saline solution is added and the cells are fixed for 10 minutes. […] The spot is rendered soluble with 0.2 ml 0.1M acetic acid/ethanol (1:1) and the optical densities are determined with the aid of a Dynatech MR 600 microtitre plate reader. […]

A2780/DDP = conditions: for IC50 ratio: IC50 A2780/DDP versus IC50 A2780
Method: as §3, §4

[3] = B. Rosenberg et al., Nature 222 (1969); cited from earlier work
B16-F10 murine melanoma = experiment: In vitro cytotoxicity, B16-F10; format: cell-based; conditions: B16-F10, 72 hours
Method: (§5) The cytotoxic action of the platinum complex was evaluated in vitro in a cell line panel consisting of B16-F10 murine melanoma, HCT-116 human colon carcinoma, A2780 human ovary carcinoma and 2 sub-lines of A2780 which are resistant to cis-platinum, i.e. A2780/124 and A2780/PPD respectively. The B16-F10 cell line was kept in a culture of Eagle's Minimum Essential Medium (MEM) with Earle's salts (Gibco) enriched with 2 mmol L-glutamine, 2.06 mmol sodium pyruvate, insulin (0.26 units/ml), penicillin/streptomycin (10 units/ml and 10 mcg/ml respectively), MEM non-essential amino acids (0.6% by weight Gibco) and 10% foetal bovine serum (Hyclone). The HCT-116 cells were cultured in McCoy's 5A medium (modified Gibco) which was supplemented with 2 mmol L-glutamine, 0.12 mmol L-serine, 0.17 mmol asparagine, 1.5 mmol sodium pyruvate, MEM essential amino acids (0.625%, Gibco), MEM non-essential amino acids (0.67%, Gibco), MEM vitamins (0.6%, Gibco), foetal calf serum (10%, Hyclone) and penicillin/streptomycin (10 units/ml and 10 mcg/ml). […]
(§6) Logarithmically growing cells are harvested by mild trypsinisation and 4,000 cells are added to a microtitre plate with 96 wells (Costar). […] The spot is rendered soluble with 0.2 ml 0.1M acetic acid/ethanol (1:1) and the optical densities are determined with the aid of a Dynatech MR 600 microtitre plate reader. […]

[4] = tested on: HCT-116 human colon carcinoma; experiment: In vitro cytotoxicity, HCT-116; format: cell-based; conditions: HCT116, 72 hours
Method: as §5, §6

[5] = tested on: A2780 human ovary carcinoma; experiment: In vitro cytotoxicity, A2780; format: cell-based; conditions: A2780, 72 hours
Method: as §5, §6

[6] = tested on: B16-F10, HCT-116, A2780, A2780/124 and A2780/DDP; format: cell-based, murine and human
Method: as §5, §6

[7] = 2.4 mg/kg i.v. on days 5, 9, 13 and 17
[8] = 4.8 mg/kg i.v. on days 5, 9, 13 and 17
[9] = 4 mg/kg i.v. on days 5, 9, 13 and 17
[10] = 6 mg/kg i.v. on days 5, 9, 13 and 17
[11] = 8 mg/kg i.v. on days 5, 9, 13 and 17
[12] = 12 mg/kg i.v. on days 5, 9, 13 and 17

Structure (SMILES): N.N.[Cl][Pt][Cl] [Cis-platinum, cis-diamine-dichloroplatinum, reference compound]
maximum % T/C (L1210 murine leukaemia; 6-10 mg/kg): 138%
% T/C ([1]; 2.4 mg/kg i.p. on days 13, 17, 21 and 25): 164%
% T/C ([1]; 4.8 mg/kg i.p. on days 13, 17, 21 and 25): 166%
% T/C [2, 7]: 144%
T-C [2, 7]: 23.3 days
% T/C [2, 8]: 141%
T-C [2, 8]: 31.8 days
IC50 ratio (A2780/124): 10
IC50 ratio (A2780/DDP): 12.6
anti-tumour activity [3]: very strong anti-tumour activity

IC50 (A2780/124; A2780/124, 72 hours): 155 µg/mL
IC50 ratio (A2780/124): 0.7
IC50 (A2780/DDP; A2780/DDP, 72 hours): 110 µg/mL
IC50 ratio (A2780/DDP): 0.5
Structure (SMILES): CC(C)C(CN)(CN)C(C)C.O=C([O-])C(=O)[O-].[Pt+2] [TNO-56, 2,2-Diisopropyl-1,3-diaminopropaneoxalatoplatinum (II)]
IC50 (B16-F10 murine melanoma): 43 µg/mL
IC50 [4]: 115 µg/mL
IC50 [5]: 221 µg/mL
% T/C (L1210 murine leukaemia; 10 mg/kg i.p.): 125%
% T/C (L1210 murine leukaemia; 20 mg/kg i.p.): 144%
% T/C (L1210 murine leukaemia; 40 mg/kg i.p.): 88%
activity (L1210 murine leukaemia; 10 and 20 mg/kg i.p., active if % T/C≥125%): active
% T/C ([1]; 4 mg/kg i.p. on days 13, 17, 21 and 25): 139%
% T/C ([1]; 6 mg/kg i.p. on days 13, 17, 21 and 25): 154%
% T/C ([1]; 8 mg/kg i.p. on days 13, 17, 21 and 25): 161%
% T/C ([1]; 12 mg/kg i.p. on days 13, 17, 21 and 25): 193%
activity ([1]; all doses tested, i.p.): active
% T/C [2, 9]: 119%
T-C [2, 9]: 7.8 days
% T/C [2, 10]: 135%
T-C [2, 10]: 14.0 days
% T/C [2, 11]: 140%
T-C [2, 11]: 21.5 days
% T/C [2, 12]: 144%
T-C [2, 12]: 26.8 days
% T/C and tumour inhibition ([2]; dose dependence, i.v.): dosage-dependent increase in % T/C and tumour inhibition
cytotoxic action [6]: cytotoxic for all five cell lines
